Like-named read-outs stand apart in the source and are kept apart here.
Tests used:
[1] = EP 484,281 and Eur. J. Immunol., 17, 1359 (1987); cited from earlier work

| Substance | immunosuppressing nature [1] | effect of combination (retroviruses; combined with AZT, ddl, Saquinavir, Nevirapin, Ritonavir and/or ribavirin) | effect of combination (retroviruses; combined with Indinavir) |
| --- | --- | --- | --- |
| [4'-hydroxy-MeLeu]^4 -cyclosporin A | not immunosuppressing |  |  |
| [(R)-2-(N,N-Dimethylamino)ethylthio-Sar]^3 -[4'-hydroxy-MeLeu]^4 -cyclosporin A [Example 1] |  | synergistic effect | additive effect |

From patent publication US5994299A, “Cyclosporin compounds, their preparation and the pharmaceutical compositions which contain them” (Rhone-Poulenc Rorer, S.A., priority 1996, dated 1999)
